Experimental data published in publication PMC11359932 (Viruses, 2024).
Where two headings read alike, the source gives them in different places.

Experiments:
SARS-CoV PLpro = details: read-out: IC50 against SARS-CoV PLpro; cited from earlier work
SARS-CoV-2 = system: SARS-CoV-2; design: method as in earlier work; details: viral loads and survival rates; cited from earlier work
SARS-CoV-2 PLpro [1] = target: T1, SARS-CoV-2 PLpro (Severe acute respiratory syndrome coronavirus 2, UniProt P0DTD1); test: biochemical; details: for Fold increase of IC50 in presence of Tween-20: 0.01% Tween-20 versus none; for IC50: CIY substrate
SARS-CoV-2 PLpro [2] = target: T1, SARS-CoV-2 PLpro; test: Surface plasmon resonance binding to immobilized PLpro; details: SPR, buffer with Tween-20, 25 °C
[3] = Cellular cytotoxicity (CCK-8 / WST assay); assay type: cell-based; details: African green monkey, Vero CCL81 cells; 48 h treatment
USP25 = USP25 (Homo sapiens, UniProt Q9UHP3); test: USP25 selectivity FRET assay (CFP-ubiquitin-YFP substrate); assay type: biochemical; details: for SI (selectivity index): IC50-USP25/IC50-PLpro
USP25, sequence (Q9UHP3 157-706): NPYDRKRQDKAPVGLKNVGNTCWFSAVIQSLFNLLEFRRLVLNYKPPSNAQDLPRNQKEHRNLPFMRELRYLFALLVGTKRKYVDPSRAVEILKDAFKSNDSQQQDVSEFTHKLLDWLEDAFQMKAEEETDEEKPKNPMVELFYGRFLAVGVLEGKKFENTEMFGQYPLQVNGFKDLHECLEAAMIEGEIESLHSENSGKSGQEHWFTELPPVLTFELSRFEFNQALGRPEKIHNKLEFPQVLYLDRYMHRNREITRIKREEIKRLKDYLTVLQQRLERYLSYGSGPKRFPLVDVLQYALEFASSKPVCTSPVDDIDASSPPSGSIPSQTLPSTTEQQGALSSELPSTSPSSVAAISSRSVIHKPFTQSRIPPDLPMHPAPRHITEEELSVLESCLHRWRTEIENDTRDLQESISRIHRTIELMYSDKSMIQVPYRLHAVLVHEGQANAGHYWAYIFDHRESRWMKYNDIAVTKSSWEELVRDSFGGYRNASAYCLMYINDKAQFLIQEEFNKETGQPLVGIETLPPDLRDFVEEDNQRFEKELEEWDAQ

SARS-CoV-2 WA1 strain [4] = test: Antiviral plaque reduction assay (PRA) in Vero-E6 cells; details: read-out: EC50-PRA, MOI 0.01, Vero-E6 cells
SARS-CoV-2 PLpro [5] = target: T1, SARS-CoV-2 PLpro; test: Inhibition mechanism, Lineweaver-Burk plot with peptide-AMC substrate; assay type: biochemical; details: 40 nM PLpro
SARS-CoV-2 WA1 strain [6] = test: Antiviral immunofluorescence assay (IFA) in Vero-E6 cells, WA1 strain; assay type: cell-based; details: Severe acute respiratory syndrome coronavirus 2, Vero C1008, MOI 0.01, Vero-E6 cells
[7] = system: SARS-CoV-2 Omicron (B.1.1.529); test: microbe, parasite or virus in culture; assay type: cell-based
[8] = IC50-PLpro-tw, with 0.01% Tween-20

In the case of CCn1ccc(-c2cc(-c3cnn(C)c3)cc([C@@H](C)NC(=O)c3cc(OCCN(C)C)ccc3C)c2)n1 [Jun12682], the “Efficacy in mouse model infected with SARS-CoV-2” value (SARS-CoV-2) is listed as “efficacy in reducing viral loads and enhancing survival rates”.

In the case of CN1CCN(c2ccc([N+](=O)[O-])c3no[n+]([O-])c23)CC1 [NSC207895], the “Fold increase of IC50 in presence of Tween-20” value (SARS-CoV-2 PLpro [1]) is reported as “more than 5 fold”, the IC50 (SARS-CoV-2 PLpro [1]; IC50-PLpro, without Tween-20) is reported as 0.9 µM and the IC50 (SARS-CoV-2 PLpro [1]; [8]) is reported as 5 µM.

For COC(=O)C1(C)Cc2cc(OC(C)=O)c(OC(C)=O)cc2N1 (stereo not shown) [NSC341956], the “Fold increase of IC50 in presence of Tween-20” value (SARS-CoV-2 PLpro [1]) was over 16 fold, the IC50 (SARS-CoV-2 PLpro [1]; with 0.01% Tween-20, read-out: IC50-PLpro-tw) was over 200 µM and the IC50 (SARS-CoV-2 PLpro [1]; without Tween-20, read-out: IC50-PLpro) was 12.4 µM.

For COC(=O)c1cc2c(n1S(=O)(=O)c1ccc(C)cc1)C(=O)C(=O)c1[nH]cc(C(=O)OCc3ccccc3)c1-2 [NSC679525], the Kd (SARS-CoV-2 PLpro [2]) was 4.1 µM, the CC50 at 48 h [3] was 18.6 µM and the IC50 (USP25; CFP-ubiquitin-YFP substrate, without Tween-20) was 41 µM. For the same compound, the “SI (selectivity index)” value (USP25) was over 4.7, the “SI (selectivity index)” value (USP25; listed as 679525) was 6.8 and the EC50 (SARS-CoV-2 WA1 strain [4]) was 400 nM. For the same compound, the “Putative Mode of Action (mechanism of inhibition)” value (SARS-CoV-2 PLpro [5]) was “Non-competitive”, the EC50 (SARS-CoV-2 WA1 strain [6]) was 2800 nM and the EC50 ([7]; Severe acute respiratory syndrome coronavirus 2, Vero C1008, read-out: EC50-Omi) was 5.42 µM. For the same compound, the EC50 ([7]; read-out: EC50-Omi) was 5.4 µM, the IC50 (SARS-CoV-2 PLpro [1]; IC50, 5 Min Incubation, 5 min preincubation with the enzyme) was 16.8 µM and the IC50 (SARS-CoV-2 PLpro [1]; IC50, 60 Min Incubation, 60 min preincubation with the enzyme) was 10.2 µM. The IC50 (SARS-CoV-2 PLpro [1]; IC50-PLpro, without Tween-20) was 6 µM and the IC50 (SARS-CoV-2 PLpro [1]; [8]) was 11 µM.
